SMILES strings stand for the structures. Numbers after ± are expanded uncertainties.

A short description of the first data set: activity coefficient (dimensionless); of the first substance listed, at infinite dilution; xn = mol fraction of the nth substance listed. The following applies: 358.15 K; 101 kPa; Liquid; Chromatography; x1 = 0.
For `C=CCCCCCC` [oct-1-ene] + O=S(=O)([N-]S(=O)(=O)C(F)(F)F)C(F)(F)F.OCCC[n+]1ccccc1, the activity coefficient was 38.1 ± 2.6.

Turning to `CCCCCCCC` [octane] + O=S(=O)([N-]S(=O)(=O)C(F)(F)F)C(F)(F)F.OCCC[n+]1ccccc1, the activity coefficient was determined as 73.6 ± 5.

Consider `CCCC(C)=O` [pentan-2-one] + O=S(=O)([N-]S(=O)(=O)C(F)(F)F)C(F)(F)F.OCCC[n+]1ccccc1, for which the activity coefficient is 0.984 ± 0.062.

Regarding `CCC(=O)CC` [pentan-3-one] + O=S(=O)([N-]S(=O)(=O)C(F)(F)F)C(F)(F)F.OCCC[n+]1ccccc1, the activity coefficient is 1.04 ± 0.07.

In the case of `CCCO` [propan-1-ol] + O=S(=O)([N-]S(=O)(=O)C(F)(F)F)C(F)(F)F.OCCC[n+]1ccccc1, the activity coefficient was determined as 1.34 ± 0.09.

As to `C1CCOC1` [tetrahydrofuran] + O=S(=O)([N-]S(=O)(=O)C(F)(F)F)C(F)(F)F.OCCC[n+]1ccccc1, the activity coefficient worked out at 0.812 ± 0.053.

Take `c1ccsc1` [thiophene] + O=S(=O)([N-]S(=O)(=O)C(F)(F)F)C(F)(F)F.OCCC[n+]1ccccc1: the activity coefficient was determined as 1.3 ± 0.08.

With `Cc1ccccc1` [toluene] + O=S(=O)([N-]S(=O)(=O)C(F)(F)F)C(F)(F)F.OCCC[n+]1ccccc1, the activity coefficient worked out at 2.4 ± 0.16.

Take `O` [water] + O=S(=O)([N-]S(=O)(=O)C(F)(F)F)C(F)(F)F.OCCC[n+]1ccccc1: the activity coefficient worked out at 1.17 ± 0.07.

The same data set, now with this note: 368.15 K; 101 kPa; Liquid; Chromatography; x1 = 0.
Regarding `C1CCCC1` [cyclopentane] + O=S(=O)([N-]S(=O)(=O)C(F)(F)F)C(F)(F)F.OCCC[n+]1ccccc1, the activity coefficient was 10.4 ± 0.7.

Regarding `CCCCCCCCCC` [decane] + O=S(=O)([N-]S(=O)(=O)C(F)(F)F)C(F)(F)F.OCCC[n+]1ccccc1, the activity coefficient was 150 ± 10.

For the compound `CCOCC` [diethyl ether] + O=S(=O)([N-]S(=O)(=O)C(F)(F)F)C(F)(F)F.OCCC[n+]1ccccc1, the activity coefficient was 3.01 ± 0.2.

In the case of `CCCOCCC` [dipropyl ether] + O=S(=O)([N-]S(=O)(=O)C(F)(F)F)C(F)(F)F.OCCC[n+]1ccccc1, the activity coefficient is 8.75 ± 0.6.

For `CCO` [ethanol] + O=S(=O)([N-]S(=O)(=O)C(F)(F)F)C(F)(F)F.OCCC[n+]1ccccc1, the activity coefficient came to 0.949 ± 0.06.

Consider `CCc1ccccc1` [ethylbenzene] + O=S(=O)([N-]S(=O)(=O)C(F)(F)F)C(F)(F)F.OCCC[n+]1ccccc1, for which the activity coefficient worked out at 3.82 ± 0.26.

Turning to `CCCCCCC` [heptane] + O=S(=O)([N-]S(=O)(=O)C(F)(F)F)C(F)(F)F.OCCC[n+]1ccccc1, the activity coefficient stood at 45.8 ± 3.1.

In the case of `CO` [methanol] + O=S(=O)([N-]S(=O)(=O)C(F)(F)F)C(F)(F)F.OCCC[n+]1ccccc1, the activity coefficient worked out at 0.725 ± 0.048.

For `CC1CCCCC1` [methylcyclohexane] + O=S(=O)([N-]S(=O)(=O)C(F)(F)F)C(F)(F)F.OCCC[n+]1ccccc1, the activity coefficient was determined as 22.9 ± 1.6.

Regarding `CCCCCCCCC` [nonane] + O=S(=O)([N-]S(=O)(=O)C(F)(F)F)C(F)(F)F.OCCC[n+]1ccccc1, the activity coefficient was 99.7 ± 6.8.

Turning to `C=CCCCCCC` [oct-1-ene] + O=S(=O)([N-]S(=O)(=O)C(F)(F)F)C(F)(F)F.OCCC[n+]1ccccc1, the activity coefficient is 35.6 ± 2.4.

As for `CCCCCCCC` [octane] + O=S(=O)([N-]S(=O)(=O)C(F)(F)F)C(F)(F)F.OCCC[n+]1ccccc1, the activity coefficient was 67.5 ± 4.6.

In the case of `CCCC(C)=O` [pentan-2-one] + O=S(=O)([N-]S(=O)(=O)C(F)(F)F)C(F)(F)F.OCCC[n+]1ccccc1, the activity coefficient worked out at 1.01 ± 0.06.

`CCC(=O)CC` [pentan-3-one] + O=S(=O)([N-]S(=O)(=O)C(F)(F)F)C(F)(F)F.OCCC[n+]1ccccc1: the activity coefficient came out at 1.07 ± 0.07.

`CCCO` [propan-1-ol] + O=S(=O)([N-]S(=O)(=O)C(F)(F)F)C(F)(F)F.OCCC[n+]1ccccc1: the activity coefficient worked out at 1.28 ± 0.08.

Take `C1CCOC1` [tetrahydrofuran] + O=S(=O)([N-]S(=O)(=O)C(F)(F)F)C(F)(F)F.OCCC[n+]1ccccc1: the activity coefficient is 0.839 ± 0.054.

Turning to `c1ccsc1` [thiophene] + O=S(=O)([N-]S(=O)(=O)C(F)(F)F)C(F)(F)F.OCCC[n+]1ccccc1, the activity coefficient is 1.31 ± 0.09.

With `Cc1ccccc1` [toluene] + O=S(=O)([N-]S(=O)(=O)C(F)(F)F)C(F)(F)F.OCCC[n+]1ccccc1, the activity coefficient was 2.41 ± 0.16.

On to `O` [water] + O=S(=O)([N-]S(=O)(=O)C(F)(F)F)C(F)(F)F.OCCC[n+]1ccccc1, for which the activity coefficient stood at 1.1 ± 0.07.

Staying with this data set, now noted: 378.15 K; 101 kPa; Liquid; Chromatography; x1 = 0.
In the case of `CCO` [ethanol] + O=S(=O)([N-]S(=O)(=O)C(F)(F)F)C(F)(F)F.OCCC[n+]1ccccc1, the activity coefficient is 0.919 ± 0.058.

For `CCc1ccccc1` [ethylbenzene] + O=S(=O)([N-]S(=O)(=O)C(F)(F)F)C(F)(F)F.OCCC[n+]1ccccc1, the activity coefficient was determined as 3.79 ± 0.26.

On to `CO` [methanol] + O=S(=O)([N-]S(=O)(=O)C(F)(F)F)C(F)(F)F.OCCC[n+]1ccccc1, for which the activity coefficient was found to be 0.703 ± 0.047.

Consider `CCCC(C)=O` [pentan-2-one] + O=S(=O)([N-]S(=O)(=O)C(F)(F)F)C(F)(F)F.OCCC[n+]1ccccc1, for which the activity coefficient is 1.03 ± 0.06.

Regarding `CCC(=O)CC` [pentan-3-one] + O=S(=O)([N-]S(=O)(=O)C(F)(F)F)C(F)(F)F.OCCC[n+]1ccccc1, the activity coefficient worked out at 1.09 ± 0.07.

Take `CCCO` [propan-1-ol] + O=S(=O)([N-]S(=O)(=O)C(F)(F)F)C(F)(F)F.OCCC[n+]1ccccc1: the activity coefficient turned out to be 1.24 ± 0.08.

As to `C1CCOC1` [tetrahydrofuran] + O=S(=O)([N-]S(=O)(=O)C(F)(F)F)C(F)(F)F.OCCC[n+]1ccccc1, the activity coefficient is 0.866 ± 0.055.

As for `c1ccsc1` [thiophene] + O=S(=O)([N-]S(=O)(=O)C(F)(F)F)C(F)(F)F.OCCC[n+]1ccccc1, the activity coefficient worked out at 1.31 ± 0.09.

For the compound `Cc1ccccc1` [toluene] + O=S(=O)([N-]S(=O)(=O)C(F)(F)F)C(F)(F)F.OCCC[n+]1ccccc1, the activity coefficient amounted to 2.42 ± 0.16.

Take `O` [water] + O=S(=O)([N-]S(=O)(=O)C(F)(F)F)C(F)(F)F.OCCC[n+]1ccccc1: the activity coefficient was found to be 1.03 ± 0.06.

(Values after the NIST ThermoML archive (doi:10.1016/j.jct.2011.04.018).)
